Results taken from patent US5137905A, “Heterocyclic acetylenic amines having central nervous system activity” (The Upjohn Company, priority 1991, dated 1992).
Where two headings read alike, the source gives them in different places.

Legend:
CNS cholinergic receptor [1] = conditions: read-out: CNS Cholinergic Receptor Binding Assays K1 QNB
[2] = system: oxotremorine-induced body tremor; test: Oxotremorine antagonist assay (body tremor); type: in vivo, mice
Method: Oxotremorine antagonist assays were performed on groups of six mice weighing 18-22 g. Each was dosed intraperitoneally with the test compound prepared in 0.25% methylcellulose and were placed in individual cages. Twenty minutes later the mice were injected subcutaneously with 0.5 mg/kg of oxotremorine dissolved in saline. Ten minutes later the mice were scored for body tremor. Doses of the compound under study began at 100 mg/kg and were decreased at a 0.5 log interval until no responders were obtained.

CNS cholinergic receptor [3] = test: CNS cholinergic receptor binding, oxotremorine M ligand; conditions: tritiated oxotremorine M; read-out: CNS Cholinergic Receptor Binding Assays K1 Oxotremorine
HCl-induced writhing = test: HCl writhing protection (analgesic activity); type: in vivo, CF1 mice; conditions: Mus musculus, sc; ED50; s.c. in CF1 mice, 30 min before i.p. 0.15% HCl; read-out: CNS Id (ED50 mg/kg) HCl Writh. Protect
Method: For determination of analgesic activity, the test compound was injected subcutaneously into a group of four CF1 mice. Thirty minutes later the mice were injected i.p. with 0.15% HCl, 10 ml./kg. Mice were then placed in plastic boxes and observed for fifteen minutes to record the number of animals failing to writhe.

[4] = tritiated quinuclidine benzylate (QNB)
[5] = Mus musculus, ip; read-out: Oxot. Antagonist Tremor (ED50)
[6] = Mus musculus, ip, read-out: Oxot. Antagonist Tremor (ED50)

| Structure (SMILES) | Ki (CNS cholinergic receptor [1]; [4]) [µM] | ED50 [2, 5] [mg/kg] | Ki (CNS cholinergic receptor [3]) [nM] | ED50 (HCl-induced writhing) [mg/kg] | Ki (CNS cholinergic receptor [1]) [µM] | ED50 [2, 6] [mg/kg] |
| --- | --- | --- | --- | --- | --- | --- |
| CCN(CC)CC#CCN1CCN(C)C1=O [Compound 24, 1-[4-(Diethylamino)-2-butynyl]-3-methyl-2-imidazolidinone] | > 10 | > 100 | 132 |  |  |  |
| CN(C)CC#C[C@@H]1CCCN1 [Compound 50D, (S)-N,N-dimethyl-3-(2-pyrrolidinyl)-2-propyn-1-amine] | > 10 | > 100 | > 10000 | > 50 |  |  |
| Cn1ccn(CC#CCn2ccnc2)c1=O [Compound 6, 1,3-Dihydro-1-[4-(1H-imidazol-1-yl)-2-butynyl]-3-methyl-2H-imidazol-2-one] | > 10 | > 100 | 35 |  |  |  |
| CC(=O)N1CCN(CC#CCn2cncc2C)C1=O [Compound 26, 1-Acetyl-3-[4-(5-methyl-1H-imidazol-1-yl)-2-butynyl]-2-imidazolidinone] | > 10 | 45 | 147 |  |  |  |
| CN(C)CC#CCN1CCN(C(=O)OC(C)(C)C)C1=O [Compound 11, t-Butyl 3-[4-(dimethylamino)-2-butynyl]-2-oxo-1-imidazolidinecarboxylate] | 4.7 | > 100 | 160 | > 50 |  |  |
| CNC(=O)N1CCC[C@@H]1C#CCN1CCCC1 [Compound 51G, (R)-N-Methyl 2-[3-(1-pyrrolidinyl)-1-propynyl]-1-pyrrolidinecarboxamide] | > 10 | > 100 | 240 | > 50 |  |  |
| CN(C)CC#CCN1CCN(C)C1=O [Compound 10, 1-[4-(1-Dimethylamino)-2-butynyl]-3-methyl-2-imidazolidinone] | 0.18 | > 10 | 4.5 | > 13 |  |  |
| CC(C#CCN(C)C)N1CCN(C)C1=O (stereo not shown) [Compound 32, 1-[4-(Dimethylamino)-1-methyl-2-butynyl]-3-methyl-2-imidazolidinone] | > 10 | > 100 | 33 |  |  |  |
| COC(=O)N1CCC[C@@H]1C#CCN1CCCC1 [Compound 51J, (R)-Methyl 2-[3-(1-pyrrolidinyl)-1-propynyl]-1-pyrrolidinecarboxylate] | 0.46 | > 100 | 57 | 11 |  |  |
| O=C1NCCN1CC#CCn1ccnc1 [Compound 25, 1-[4-(1H-Imidazol-1-yl)-2-butynyl]-2-imidazolidinone] | > 10 | > 100 | 62 |  |  |  |
| CN1CCCN(CC#CCN2CCCC2)C1=O [Compound 42, Tetrahydro-1-methyl-3-[4-(1-pyrrolidinyl)-2-butynyl]-2(1H)-pyrimidinone] | 1.58 | > 30 | 229 |  |  |  |
| CN(C)CC#C[C@H]1CCCN1C(=O)OC(C)(C)C [Compound 49C, (R)-t-Butyl 2-[3-(dimethylamino)-1-propynyl]-1-pyrrolidinecarboxylate] | > 10 | > 100 | 44 | > 50 |  |  |
| CN1CCN(CC#CCN2CCCC2)C1=O [Compound 1, 1-Methyl-3-[4-(1-pyrrolidinyl)-2-butynyl]-2-imidazolidinone] | 0.18 | > 3 | 2.7 | 0.2 |  |  |
| CC(C#CCN(C)C)n1ccn(C)c1=O (stereo not shown) [Compound 40, 1,3-Dihydro-1-methyl-3-[4-(dimethylamino)-1-methyl-2-butynyl]-2H-imidazol-2-one] | > 10 | > 100 | 136 |  |  |  |
| CC1(C)CN(CC#CCN2CCCC2)C(=O)N1 [Compound 12, 4,4-Dimethyl-1-[4-(1-pyrrolidinyl)-2-butynyl]-2-imidazolidinone] |  | > 100 | 820 | > 50 |  |  |
| CC1CN(C)C(=O)N1CC#CCN1CCCC1 (stereo not shown) [Compound 19, 1,4Dimethyl-3-[4-(1-pyrrolidinyl)-2-butynyl]-2-imidazolidinone] | 0.02 | 6.6 | 4 | > 13 |  |  |
| CN1C(=O)CN(CC#CCN2CCCC2)C1=O [Compound 43, 3-Methyl-1-[4-(1-pyrrolidinyl)-2-butynyl]-2,4-imidazolidinedione] | > 10 | > 100 | 364 |  |  |  |
| Cc1cncn1CC#CCN1CCN(C)C1=O [Compound 29, 1-Methyl-3-[4-(5-methyl-1H-imidazol-1-yl)-2-butynyl]-2-imidazolidinone] | 0.381 | > 100 | 9 |  |  |  |
| CN1CCN(CC#CCn2ccnc2)C1=O [Compound 28, 1-[4-(1H-Imidazol-1-yl)-2-butynyl]-3-methyl-2-imidazolidinone] |  |  | 2 |  | 1.87 | > 100 |
| C(#C[C@H]1CCCN1)CN1CCCC1 [Compound 50A, (R)-1-[3-(2-pyrrolidinyl)-2-propynyl]pyrrolidine] | 4.8 | > 100 | 260 |  |  |  |

| Structure (SMILES) | Ki (CNS cholinergic receptor [1]; [4]) [µM] | ED50 [2, 5] [mg/kg] | Ki (CNS cholinergic receptor [3]) [nM] | ED50 (HCl-induced writhing) [mg/kg] | Ki (CNS cholinergic receptor [1]) [µM] | ED50 [2, 6] [mg/kg] |
| --- | --- | --- | --- | --- | --- | --- |
| Cc1cncn1CC#CCn1ccn(C)c1=O [Compound 7, 1,3-Dihydro-1-methyl-3-[4-(5-methyl-1H-imidazol-1-yl)-2-butynyl]-2H-imidazol-2-one] | 0.614 | > 100 | 39 |  |  |  |
| CC(=O)N1CCC[C@H]1C#CCN1CCCC1 [Compound 51B, (S)-1-Acetyl-2-[3-(1-pyrrolidinyl)-1-propynyl]pyrrolidine] | 2.3 | > 30 | 370 |  |  |  |
| C(#C[C@@H]1CCCN1)CN1CCCC1 [Compound 50B, (S)-1-[3-(2-pyrrolidinyl)-2-propynyl]pyrrolidine] | > 10 |  | 1300 |  |  |  |
| CN(C)CC#CCN1C(=O)CN(C)C1=O [Compound 41, 3-[4-(Dimethylamino)-2-butynyl]-1-methyl-2,4-imidazolidinedione] | > 10 |  | 86 |  |  |  |
| CC(C#CCN1CCCC1)N1CCNC1=O (stereo not shown) [Compound 31, 1-[1-Methyl-4-(1-pyrrolidinyl)-2-butynyl]-2-imidazolidinone] | 0.135 | > 30 | 15 |  |  |  |
| O=c1[nH]ccn1CC#CCN1CCCC1 [Compound 38, 1,3-Dihydro-1-[4-(1-pyrrolidinyl)-2-butynyl]-2H-imidazol-2-one] | > 10 | > 2 | 33 |  |  |  |
| Cc1cncn1CC#CCN1CCNC1=O [Compound 27, 1-[4-(5-Methyl-1H-imidazol-1-yl)-2-butynyl]-2-imidazolidinone] | > 10 | > 100 | 138 |  |  |  |
| CN(C)CC#CCN1CCNC1=O [Compound 33, 1-[4-(Dimethylamino)-2-butynyl]-2-imidazolidinone] | > 10 | > 100 | 43 |  |  |  |
| CC(=O)N1CCC[C@@H]1C#CCN1CCCC1 [Compound 51A, (R)-1-Acetyl-2-[3-(1-pyrrolidinyl)-1-propynyl]pyrrolidine] | 0.12 | 3 |  | > 50 |  |  |
| CC(C#CCN1CCCC1)n1ccn(C)c1=O (stereo not shown) [Compound 39, 1,3-Dihydro-1-methyl-3-[1-methyl-4-(1-pyrrolidinyl)-2-butynyl]-2H-imidazol-2-one] | 0.088 | > 30 | 9 |  |  |  |
| CCN(CC)CC#CCN1CCNC1=O [Compound 23, 1-[4-(Diethylamino)-2-butynyl]-2-imidazolidinone] | > 10 | > 100 | 425 |  |  |  |
| CC(C#CCn1ccnc1)N1CCN(C)C1=O (stereo not shown) [Compound 35, 3-[4-(1H-Imidazol-1-yl)-1-methyl-2-butynyl]-1-methyl-2-imidazolidinone] | 4.01 | > 100 | 120 |  |  |  |
| CN1C(=O)N(CC#CCN2CCCC2)CC1(C)C [Compound 13, 3,4,4-Trimethyl-1-[4-(1-pyrrolidinyl)-2-butynyl]-2-imidazolidinone] |  | > 100 | > 10000 | 12.5 |  |  |
| CN(C)CC#CCn1ccn(C)c1=O [Compound 37, 1,3-Dihydro-1-[4-(dimethylamino)-2-butynyl]-3-methyl-2H-imidazol-2-one] | > 10 | > 100 | 37 |  |  |  |
| CC(C#CCN1CCCC1)N1CCN(C)C1=O (stereo not shown) [Compound 22, 1-Methyl-3-[1-methyl-4-(1-pyrrolidinyl)-2-butynyl]-2-imidazolidinone] |  |  |  |  |  | 37 |
| CCN(CC)CC#CC(C)N1CCN(C)C1=O (stereo not shown) [Compound 34, 1-[4-(Diethylamino)-1-methyl-2-butynyl]-3-methyl-2-imidazolidinone] | 1.98 | > 100 | 165 |  |  |  |
| CCN(CC)CC#CCn1ccn(C)c1=O [Compound 4, 1-[4-(Diethylamino)-2-butynyl]-1,3-dihydro-3-methyl-2H-imidazol-2-one] | > 10 | > 100 | 563 |  |  |  |
| CN1CC(=O)N(CC#CCN2CCCC2)C1=O [Compound 44, 1-Methyl-3-[4-(1-pyrrolidinyl)-2-butynyl]-2,4-imidazolidinedione] | 8.71 | > 30 | 20 |  |  |  |
| CCN1CCN(CC#CCN2CCCC2)C1=O [Compound 30, 1-Ethyl-3-[4-(1-pyrrolidinyl)-2-butynyl]-2-imidazolidinone] | > 10 | > 30 | 697 |  |  |  |
